Legend:
[1] = molecular target: T1, Recombinant Human NF-kappaB-Inducing Kinase (NIK/MAP3K14) (Homo sapiens, UniProt Q99558); assay: Biological Assay A2: inhibition of auto-phosphorylation of recombinant human NIK/MAP3K14 (AlphaScreen); format: biochemical; details: 0.2 nM GST-tagged NIK, 25 microM ATP, 1 h at 25° C., averaged values
Procedure: Inhibition of Auto-Phosphorylation of Recombinant Human NF-kappaB-Inducing Kinase (NIK/MAP3K14) Activity (AlphaScreen®)
NIK/MAP3K14 auto-phosphorylation activity was measured using the AlphaScreen® (αscreen) format (Perkin Elmer). All compounds tested were dissolved in dimethyl sulfoxide (DMSO) and further dilutions were made in assay buffer. Final DMSO concentration was 1% (v/v) in assays. Assay buffer was 50 mM Tris pH 7.5 containing 1 mM EGTA (ethylene glycol tetraacetic acid), 1 mM DTT (dithiothreitol), 0.1 mM Na3VO4, 5 mM MgCl2, 0.01% Tween® 20. Assays were carried out in 384 well Alphaplates (Perkin Elmer). Incubations consisted of compound, 25 microM Adenosine-5′-triphosphate (ATP), and 0.2 nM NIK/MAP3K14. Incubations were initiated by addition of GST-tagged NIK/MAP3K14 enzyme, carried out for 1 h at 25° C. and terminated by addition of stop buffer containing anti-phospho-IKK Ser176/180 antibody. Protein A Acceptor and Glutathione-Donor beads were added before reading using an EnVision® Multilabel Plate Reader (Perkin Elmer). Signal obtained in the wells containing blank samples was subtracted from all other wells and IC50's were determined by fitting a sigmoidal curve to % inhibition of control versus Log10 compound concentration.

JJN-3 cells = assay: Biological Assay C: antiproliferative activity on JJN-3 cells (CellTiter-Glo); format: cell-based, human; details: 72 hr treatment, averaged values
Procedure: (§1) Determination of Antiproliferative Activity on LP-1, L-363 and JJN-3 Cells
(§2) All compounds tested were dissolved in DMSO and further dilutions were made in culture medium. Final DMSO concentration was 0.3% (v/v) in cell proliferation assays. Viability was assessed using CellTiter-Glo cell viability assay kit (Promega). The human LP-1, L-363 and JJN-3 cells (DSMZ) were cultured in RPMI 1640 medium supplemented with 2 mM L-glutamine, and 10% fetal calf serum (PAA). Cells were routinely kept as suspension cells at 37° C. in a humidified 5% CO2 atmosphere. Cells were passaged at a seeding density of 0.2×10^6/ml twice a week. Cells were seeded in black tissue culture treated 96-well plates (Perkin Elmer). Densities used for plating ranged from 2,000 to 6,000 cells per well in a total volume of 75 μl medium. After twenty four hours, drugs and/or solvents were added (25 μl) to a final volume of 100 μl. Following 72 hr of treatment plates were removed from the incubator and allowed to equilibrate to room temperature for approx 10 min. 100 ut CellTiter-Glo reagent was added to each well that was then covered (Perkin Elmer Topseal) and shaken on plate shaker for 10 min. Luminescence was measured on a HTS Topcount (Perkin Elmer). Within an experiment, the results for each treatment were the mean of 2 replicate wells. For initial screening purposes, compounds were tested using a 9 point dilution curve (serial 1:3 dilutions). For each experiment, controls (containing no drug) and a blank incubation (containing cells read at the time of compound addition) were run in parallel. The blank value was subtracted from all control and sample values. For each sample, the mean value for cell growth (in relative light units) was expressed as a percentage of the mean value for cell growth of the control.

LP-1 cells = assay: Biological Assay C: antiproliferative activity on LP-1 cells (CellTiter-Glo); format: cell-based, human; details: 72 hr treatment, averaged values
Procedure: as §1, §2

L-363 cells = assay: Biological Assay C: antiproliferative activity on L-363 cells (CellTiter-Glo); format: cell-based, human; details: 72 hr treatment, averaged values
Procedure: as §1, §2

[2] = molecular target: T1, Recombinant Human NF-kappaB-Inducing Kinase (NIK/MAP3K14); assay: Biological Assay A: inhibition of recombinant human NIK/MAP3K14 activity (MSD, MBP substrate); details: 10 nM NIK, 25 μM ATP, 1 h at 25° C.; averaged over all measurements on all batches; read-out: Biochemical (MSD IC50)
Procedure: Inhibition of Recombinant Human NF-kappaB-Inducing Kinase (NIK/MAP3K14) Activity Assay buffer was 50 mM Tris pH 7.5 containing 1 mM EGTA (ethylene glycol tetraacetic acid), 1 mM DTT (dithiothreitol), 0.1 mM Na3VO4, 5 mM MgCl2, 0.01% Tween® 20. Assays were carried out in 384 well Mesoscale high binding plates which had been coated with myelin basic protein (MBP) and blocked with bovine serum albumin to prevent non-specific protein binding. All compounds tested were dissolved in dimethyl sulfoxide (DMSO) and further dilutions were made in assay buffer. Final DMSO concentration was 1% (v/v) in assays. Incubations consisted of compound (1% DMSO in control and blank wells), 25 μM Adenosine-5′-triphosphate (ATP), and 10 nM NIK/MAP3K14 substituting enzyme with buffer in the blank wells. Incubations were carried out for 1 h at 25° C. and were followed by washing and sequential incubation with rabbit anti-phospho-MBP and anti-rabbit Ig Sulfotag antibody before reading bound Sulfotag on a Mesoscale Discovery. Signal obtained in the wells containing blank samples was subtracted from all other wells and ICso's were determined by fitting a sigmoidal curve to % inhibition of control versus Log10 compound concentration.

[3] = test system: P-IKKα levels in L363 cells; assay: Biological Assay B: effect of compounds on P-IKKα levels in L363 cells; format: cell-based; details: Homo sapiens, L-363, BAFF stimulated, 2 hr treatment, averaged values, read-out: IKKα Cellular IC50
Procedure: Effect of Compounds on P-IKKα Levels in L363 Cells
All compounds tested were dissolved in DMSO and further dilutions were made in culture medium. Final DMSO concentration was 1% (v/v) in cell assays. The human L363 cells (ATCC) were cultured in RPMI 1640 medium supplemented with GlutaMax and 10% fetal calf serum (PAA). Cells were routinely maintained at densities of 0.2×10^6 cells per ml—1×10^6 cells per ml at 37° C. in a humidified 5% CO2 atmosphere. Cells were passaged twice a week splitting back to obtain the low density. Cells were seeded in 96 well plates (Nunc 167008) at 2×10^6 per ml media in a volume of 75 μl per well plus 25 μl 1 μg/ml recombinant human B-cell activating factor (BAFF/BLyS/TNFSF13B). Seeded cells were incubated at 37° C. in a humidified 5% CO2 atmosphere for 24 hr. Drugs and/or solvents were added (20 μl) to a final volume of 120 μl. Following 2 hr treatment plates were removed from the incubator and cell lysis was achieved by the addition of 30 μl 5× lysis buffer followed by shaking on a plate shaker at 4° C. for 10 min. At the end of this incubation lysed cells were centrifuged at 800×g for 20 min at 4° C. and the lysate was assessed for P-IKKα levels by sandwich immuno-assay carried out in anti-rabbit antibody coated Mesoscale plates. Within an experiment, the results for each treatment were the mean of 2 replicate wells. For initial screening purposes, compounds were tested using an 8 point dilution curve (serial 1:3 dilutions). For each experiment, controls (containing MG132 and BAFF but no test drug) and a blank incubation (containing MG132 and BAFF and 10 μM ADS125117, a test concentration known to give full inhibition) were run in parallel. The blank incubation value was subtracted from all control and sample values. To determine the IC50 a sigmoidal curve was fitted to the plot of % inhibition of control P-IKKα levels versus Log10 compound concentration.

T1 sequence (Q99558 whole entry): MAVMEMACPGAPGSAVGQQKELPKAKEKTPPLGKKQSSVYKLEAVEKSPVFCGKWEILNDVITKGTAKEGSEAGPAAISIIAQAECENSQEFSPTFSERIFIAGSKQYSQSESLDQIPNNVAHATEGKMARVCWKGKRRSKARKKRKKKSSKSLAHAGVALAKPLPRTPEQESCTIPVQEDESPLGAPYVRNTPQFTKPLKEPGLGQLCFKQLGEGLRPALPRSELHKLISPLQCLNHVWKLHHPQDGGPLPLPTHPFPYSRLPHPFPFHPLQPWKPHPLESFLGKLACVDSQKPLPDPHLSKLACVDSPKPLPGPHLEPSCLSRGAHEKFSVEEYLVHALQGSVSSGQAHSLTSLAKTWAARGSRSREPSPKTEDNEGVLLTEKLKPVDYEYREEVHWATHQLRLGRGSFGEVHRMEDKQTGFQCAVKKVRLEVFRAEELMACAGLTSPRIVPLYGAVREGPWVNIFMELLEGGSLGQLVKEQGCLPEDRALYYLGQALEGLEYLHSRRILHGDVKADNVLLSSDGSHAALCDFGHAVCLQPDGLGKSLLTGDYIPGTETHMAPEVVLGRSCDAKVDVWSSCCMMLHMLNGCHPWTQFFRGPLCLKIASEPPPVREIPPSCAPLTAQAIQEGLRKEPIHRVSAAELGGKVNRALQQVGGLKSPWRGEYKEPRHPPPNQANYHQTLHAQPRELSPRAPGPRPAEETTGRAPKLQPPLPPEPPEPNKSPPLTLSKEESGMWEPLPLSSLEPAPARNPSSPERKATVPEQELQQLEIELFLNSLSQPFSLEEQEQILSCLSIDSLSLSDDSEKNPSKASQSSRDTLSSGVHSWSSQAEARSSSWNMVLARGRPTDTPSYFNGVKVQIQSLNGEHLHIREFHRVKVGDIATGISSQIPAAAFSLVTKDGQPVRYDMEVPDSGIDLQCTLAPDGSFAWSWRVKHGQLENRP

| SMILES | IC50 [1] | EC50 (JJN-3 cells) | EC50 (LP-1 cells) | EC50 (L-363 cells) | IC50 [2] | IC50 [3] | EC50 (JJN-3 cells; Homo sapiens, JJN-3, 72 h) | EC50 (LP-1 cells; Homo sapiens, LP-1, 72 h) | EC50 (L-363 cells; Homo sapiens, L-363, 72 h) |
| --- | --- | --- | --- | --- | --- | --- | --- | --- | --- |
| [2H]C([2H])([2H])C(O)(C#Cc1cc2c(-c3c[nH]nc3Cl)cn(C3CCCN(CC)C3)c2cc1F)C([2H])([2H])[2H] (single isomer, unassigned) [Compound 31] | 146 nM | 606 nM | 731 nM | 436 nM |  |  |  |  |  |
| [2H]C([2H])([2H])C(O)(C#Cc1cc2c(-c3c[nH]nc3Cl)cn(C3CCCN(CC)C3)c2cc1F)C([2H])([2H])[2H] (single isomer, unassigned) [Compound 32] | 76 nM | 437 nM | 407 nM | 310 nM |  |  |  |  |  |
| CC(C)(O)C#Cc1ccc2[nH]cc(-c3cn[nH]c3)c2c1 [Compound 1] | 22 nM |  |  |  | 28 nM | 122 nM | 432 nM | 320 nM | 245 nM |
| CCn1cc(-c2c[nH]nc2N)c2cc(C#CC(C)(C)O)ccc21 [Compound 2] | 43 nM |  |  |  | 44 nM | 87 nM | 733 nM | 1420 nM | 990 nM |
| CCn1cc(-c2c[nH]nc2C(F)(F)F)c2cc(C#CC(C)(C)O)ccc21 [Compound 4] | 350 nM |  |  |  | 581 nM |  |  |  |  |
| [2H]C([2H])([2H])C(O)(C#Cc1cc2c(-c3c[nH]nc3Cl)cn(C3CCN(C4CC4)CC3)c2cc1F)C([2H])([2H])[2H] [Compound 15] | 71 nM |  |  |  |  |  | 608 nM | 581 nM | 265 nM |
| [2H]c1n[nH]c([2H])c1-c1cn(CC)c2cc(F)c(C#CC(C)(C)O)cc12 [Compound 16] | 8510 nM |  |  |  |  |  |  | 14200 nM |  |
| COCCCn1cc(-c2c[nH]nc2Cl)c2cc(C#CC(C)(O)C3CC3)c(F)cc21 (stereo not drawn) [Compound 17] | 183 nM |  |  |  |  |  | 1520 nM | 1400 nM | 3240 nM |
| COCCCn1cc(-c2c[nH]nc2Cl)c2cc(C#CC(C)(C)O)c(F)cc21 [Compound 18] | 33 nM |  |  |  |  |  | 706 nM | 1510 nM | 1180 nM |
| CN1CCC(n2cc(-c3c[nH]nc3Cl)c3cc(C#CC(C)(O)C4CC4)c(F)cc32)CC1 (stereo not drawn) [Compound 19] | 190 nM |  |  |  |  |  | 811 nM | 749 nM | 632 nM |
| CN1CCC(n2cc(-c3c[nH]nc3Cl)c3cc(C#CC(C)(C)O)c(F)cc32)CC1 [Compound 20] | 21 nM |  |  |  |  |  | 61 nM | 111 nM | 43 nM |
| CC(O)(C#Cc1cc2c(-c3c[nH]nc3Cl)cn(CCCO)c2cc1F)C1CC1 (stereo not drawn) [Compound 21] | 67 nM |  |  |  |  |  | 1090 nM | 3510 nM | 1930 nM |
| CC(C)(O)C#Cc1cc2c(-c3c[nH]nc3Cl)cn(CCCO)c2cc1F [Compound 22] | 11 nM |  |  |  |  | 32 nM | 255 nM | 1350 nM | 430 nM |
| CCn1cc(-c2c[nH]nc2Cl)c2cc(C#CC(C)(C)O)cc(Cl)c21 [Compound 23] | 204 nM |  |  |  |  |  | 2740 nM | 3610 nM | 5400 nM |
| CCn1cc(-c2c[nH]nc2Cl)c2cc(C#CC(C)(C)O)c(F)cc21 [Compound 24] | 11 nM |  |  |  |  | 127 nM | 734 nM | 1580 nM | 683 nM |
| CCn1cc(-c2c[nH]nc2Cl)c2cc(C#CC(C)(C)O)c(F)c(F)c21 [Compound 25] | 86 nM |  |  |  |  |  | 2230 nM | 3230 nM | 4350 nM |
| CCn1cc(-c2cn[nH]c2)c2cc(C#CC(C)(C)O)cc(F)c21 [Compound 26] | 51 nM |  |  |  |  |  | 1570 nM | 2210 nM | 1130 nM |
| CCn1cc(-c2cn[nH]c2)c2cc(C#CC(C)(C)O)cc(C(F)(F)F)c21 [Compound 27] | 552 nM |  |  |  |  |  |  |  |  |
| CCn1cc(-c2cn[nH]c2)c2cc(C#CC(C)(C)O)cc(C#N)c21 [Compound 28] | 554 nM |  |  |  |  |  |  |  |  |
| CN1CC(n2cc(-c3c[nH]nc3Cl)c3cc(C#CC(C)(C)O)c(F)cc32)C1 [Compound 29] | 50 nM |  |  |  |  |  | 375 nM | 758 nM | 176 nM |
| [2H]C([2H])([2H])C(O)(C#Cc1cc2c(-c3c[nH]nc3Cl)cn(C3CCCN(CC)C3)c2cc1F)C([2H])([2H])[2H] (stereo not drawn) [Compound 30] | 126 nM |  |  | 201 nM |  |  | 379 nM | 397 nM |  |
| CN1CCC(n2cc(-c3c[nH]nc3Cl)c3cc(C#CC(C)(O)c4nccs4)c(F)cc32)CC1 (stereo not drawn) [Compound 33] | 18 nM |  |  |  |  |  | 624 nM | 1610 nM | 875 nM |
| Cc1cc(C(C)(O)C#Cc2cc3c(-c4c[nH]nc4Cl)cn(C4CCN(C)CC4)c3cc2F)no1 (stereo not drawn) [Compound 34] | 42 nM |  |  |  |  |  | 1380 nM | 2450 nM | 1220 nM |
| Cc1nc(C(C)(O)C#Cc2cc3c(-c4c[nH]nc4Cl)cn(C4CCN(C)CC4)c3cc2F)no1 (stereo not drawn) [Compound 35] | 84 nM |  |  |  |  |  | 1360 nM | 4580 nM | 1090 nM |
| CN1CCC(n2cc(-c3c[nH]nc3Cl)c3cc(C#CC4(O)CCCC4)c(F)cc32)CC1 [Compound 36] |  |  |  |  |  |  | 1220 nM | 1210 nM | 845 nM |
| CN1CCC(n2cc(-c3c[nH]nc3Cl)c3cc(C#CC(C)(O)c4ncccn4)c(F)cc32)CC1 (stereo not drawn) [Compound 37] | 162 nM |  |  |  |  |  | 4470 nM | 2510 nM | 2880 nM |

From patent US9981962B2, “Pyrazole derivatives as NIK inhibitors” (Janssen Pharmaceutica NV, priority 2014, dated 2018)
